The results in this text go back to patent publication US20140112886A1, “DINUCLEOTIDE COMPOUNDS FOR HCV INFECTION” (IDENIX PHARMACEUTICALS, INC., priority 2012, published 2014).

A short description of one data set: in vitro. To be noted: human.
In the next data set the test system is HCV genotype 1b replicon. The experiment in a line: microbe, parasite or virus in culture. Type of data set: cell-based. To be noted: Hepatitis C virus, 72 h, read-out: HCV Replicon EC50. In general terms: Replicon systems follow genome replication, usually without infectious particles.
The nature of data set [1]: Cytotoxicity evaluation, CellTiter-Blue Cell Viability Assay. To be noted: human, Zluc cells (HCV replicon cells). Background: Resazurin is reduced to fluorescent resorufin, in cell work by metabolically active cells.

In “in vitro”, `CCOc1nc(N)nc2c1ncn2[C@@H]1O[C@@H]2COP(=O)(Oc3cccc(OP4(=O)OC[C@H]5O[C@@H](n6ccc(OC)nc6=O)[C@](C)(F)[C@@H]5O4)c3)O[C@H]2[C@@]1(C)F` (stereo partly shown) [Compound 10] returned a CC50 of over 50 µM. Further, in the data set on HCV genotype 1b replicon, the EC50 is under 0.25 µM.
For `CCOc1nc(N)nc2c1ncn2[C@@H]1O[C@@H]2COP(=O)(NCCNP3(=O)OC[C@H]4O[C@@H](n5cnc6c(OCC)nc(N)nc65)[C@](C)(F)[C@@H]4O3)O[C@H]2[C@@]1(C)F` (mixture of isomers) [Compound 3], in data set [1], the CC50 at 72 h was over 50 µM. For the same molecule, the EC50 in the data set with HCV genotype 1b replicon lay in the range of 1 to 10 µM.
Turning to `CCOc1nc(N)nc2c1ncn2[C@@H]1O[C@@H]2COP(=O)(OC3CCC(OP4(=O)OC[C@H]5O[C@@H](n6cnc7c(OCC)nc(N)nc76)[C@](C)(F)[C@@H]5O4)CC3)O[C@H]2[C@@]1(C)F` (stereo partly shown) [Compound 13], in “in vitro”, the CC50 was over 50 µM. The EC50 with HCV genotype 1b replicon lay within 1 to 10 µM.
`CCOc1nc(N)nc2c1ncn2[C@@H]1O[C@H](COP(=O)(NCCNP(=O)(OC[C@H]2O[C@@H](n3cnc4c(OC)nc(N)nc43)[C@](C)(O)[C@@H]2O)Oc2ccccc2)Oc2ccccc2)[C@@H](O)[C@@]1(C)F` (stereo partly shown) [Compound 5] returned a CC50 in the data set “in vitro” of over 50 µM. Besides, in the data set with HCV genotype 1b replicon, the EC50 is over 10 µM.
As for `CCOc1nc(N)nc2c1ncn2[C@@H]1OC(COP2(=O)OCC3(CO2)COP(=O)(OCC2O[C@@H](n4cnc5c(OCC)nc(N)nc54)[C@](C)(F)[C@@H]2O)OC3)[C@@H](O)[C@@]1(C)F` (stereo partly shown) [Compound 7], the CC50 in “in vitro” is over 50 µM. For the same molecule, the EC50 with HCV genotype 1b replicon was over 10 µM.
The corresponding values for `CCOc1nc(N)nc2c1ncn2[C@@H]1O[C@@H]2COP(=O)(Oc3cccc(OP4(=O)OC[C@H]5O[C@@H](n6ccc(=O)[nH]c6=O)[C@](C)(F)[C@@H]5O4)c3)O[C@H]2[C@@]1(C)F` (stereo partly shown) [Compound 8] are over 50 µM and under 0.25 µM.
`CCOc1nc(N)nc2c1ncn2[C@@H]1O[C@@H]2COP(=O)(Oc3cccc(OP4(=O)OC[C@H]5O[C@@H](n6cnc7c(OCC)nc(N)nc76)[C@](C)(O)[C@@H]5O4)c3)O[C@H]2[C@@]1(C)O` (stereo partly shown) [Compound 12]: the CC50 in the data set “in vitro” was over 50 µM. The EC50 in the data set on HCV genotype 1b replicon lay in the range of 0.25 to 1 µM.
As to `CCOc1nc(N)nc2c1ncn2[C@@H]1O[C@@H]2COP(=O)(NCCCCCCNP3(=O)OC[C@H]4O[C@@H](n5cnc6c(OCC)nc(N)nc65)[C@](C)(F)[C@@H]4O3)O[C@H]2[C@@]1(C)F` (stereo partly shown) [Compound 14], the CC50 at 72 h in data set [1] was over 50 µM. Further, the EC50 in the data set with HCV genotype 1b replicon is 1 to 10 µM.
In “in vitro”, `CCOc1nc(N)nc2c1ncn2[C@@H]1O[C@H](COP(=O)(Oc2ccccc2)N2CCN(P(=O)(OC[C@H]3O[C@@H](n4cnc5c(OC)nc(N)nc54)[C@](C)(O)[C@@H]3O)Oc3ccccc3)CC2)[C@@H](O)[C@@]1(C)F` (stereo partly shown) [Compound 4] had a CC50 of over 50 µM. Besides, the EC50 in the data set with HCV genotype 1b replicon is over 10 µM.
`CCOc1nc(N)nc2c1ncn2[C@@H]1O[C@@H]2COP(=O)(Oc3cccc(OP4(=O)OC[C@H]5O[C@@H](n6cnc7c(OCC)nc(N)nc76)[C@](C)(F)[C@@H]5O4)c3)O[C@H]2[C@@]1(C)O` (stereo partly shown) [Compound 9] yielded a CC50 in the data set “in vitro” of over 50 µM. Further, the EC50 with HCV genotype 1b replicon is under 0.25 µM.
The matching figures for `COc1nc(N)nc2c1ncn2[C@@H]1O[C@H](COP(=O)(NCCNP(=O)(OC[C@H]2O[C@@H](n3cnc4c(OC)nc(N)nc43)[C@](C)(O)[C@@H]2O)Oc2ccccc2)Oc2ccccc2)[C@@H](O)[C@@]1(C)O` (stereo partly shown) [Compound 6]: over 50 µM and over 10 µM.

What is called EC50 is the concentration giving half of the maximal effect.
